PubChem BioAssay (NCI)
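Assay format: 96-well plates, 48-hour exposure. The concentration for 50% growth inhibition is given as GI50. TGI is the concentration that stops growth completely.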

Columns and labels:
Assay in all cases: inhibition of tumour cell growth, NCI panel, 48 h
HOP-18 NSCLC = test system: HOP-18 NSCLC
RXF 393 renal = test system: RXF 393 renal
ACHN renal = test system: ACHN renal
LXFL 529 NSCLC = test system: LXFL 529 NSCLC
SR leukemia = test system: SR leukemia
SW-620 colon = test system: SW-620 colon
NCI-H522 lung = test system: NCI-H522 lung
UACC-257 melanoma = test system: UACC-257 melanoma
UACC-62 melanoma = test system: UACC-62 melanoma
RPMI-8226 leukemia = test system: RPMI-8226 leukemia
UO-31 renal = test system: UO-31 renal

SMILES | TGI (HOP-18 NSCLC) | TGI (RXF 393 renal) | TGI (ACHN renal) | TGI (LXFL 529 NSCLC) | TGI (SR leukemia) | TGI (SW-620 colon) | TGI (NCI-H522 lung) | TGI (UACC-257 melanoma) | TGI (UACC-62 melanoma) | TGI (RPMI-8226 leukemia) | TGI (UO-31 renal) | GI50 (RXF 393 renal) | GI50 (SR leukemia) | GI50 (NCI-H522 lung)
O=P1(N(CCCl)CCCl)NCCCO1 (stereo unspecified) | 150 µM | > 250 µM | > 250 µM | > 250 µM | > 250 µM | > 250 µM | > 250 µM | > 250 µM | > 250 µM | > 250 µM | > 250 µM | – | – | –
NNc1nnc(-c2ccccc2)nc1Cc1ccccc1 | 7.25 µM | > 100 µM | > 100 µM | 78.9 µM | > 100 µM | > 100 µM | > 100 µM | – | 16.1 µM | – | 31.6 µM | – | – | –
CCn1c(SCc2nnc(Nc3ccccc3)s2)nc2ccccc2c1=O | – | 19.1 µM | 9.16 µM | – | 61.4 µM | > 68.3 µM | 7.63 µM | 51.9 µM | 11.9 µM | 37.1 µM | 12.1 µM | – | – | –
CCOC(=O)/C(C1=N[C@H](C(=O)OCC)CS1)=C(\O)c1ccccc1 | > 100 µM | > 100 µM | > 100 µM | > 100 µM | > 100 µM | > 100 µM | > 100 µM | > 100 µM | > 100 µM | > 100 µM | > 100 µM | – | – | –
CCC1(O)CC(O)c2c(O)c3c(c(O)c2C1C(=O)OC)C(=O)c1cccc(O)c1C3=O (stereo unspecified) | – | 23.5 µM | 15.1 µM | – | 5.91 µM | > 48.2 µM | 4.96 µM | 21.8 µM | 12.4 µM | > 23.1 µM | 13.2 µM | – | – | –
C=C(C)[C@@H]1CC[C@]2(C(=O)OC3OC(COC4OC(CO)C(OC5OC(C)C(O)C(O)C5O)C(O)C4O)C(O)C(O)C3O)CC[C@]3(C)[C@H](CC[C@@H]4[C@@]5(C)CC[C@H](O)[C@@](C)(CO)[C@@H]5CC[C@]43C)[C@@H]12 (stereo partly specified) | – | > 10 µM | > 10 µM | – | > 4.48 µM | > 10 µM | 9.56 µM | > 10 µM | 4.76 µM | > 5.92 µM | > 10 µM | – | – | –
C#Cc1cccc(Nc2ncnc3cc(OCCOC)c(OCCOC)cc23)c1 | – | 34.9 µM | 32.2 µM | – | > 100 µM | > 100 µM | 27.1 µM | > 100 µM | 38 µM | > 74.7 µM | 74.5 µM | 3.97 µM | 9.98 µM | 901 nM
O=[N+]([O-])c1cccc([N+](=O)[O-])c1Cl | – | 38.3 µM | 31.4 µM | – | > 100 µM | > 100 µM | 29.5 µM | 23.6 µM | 42.9 µM | > 100 µM | 2.86 µM | – | – | –
CCOC(=O)NC(OCc1ccccc1)(C(=O)OC)C(F)(F)F (stereo unspecified) | – | > 100 µM | > 100 µM | – | > 100 µM | > 100 µM | > 100 µM | > 100 µM | > 100 µM | > 100 µM | > 100 µM | – | – | –
N#C[C@H]1C(=O)C(c2nc3ccccc3[nH]2)S[C@H]1c1ccccc1 (stereo partly specified) | – | 67.8 µM | 57.6 µM | – | > 100 µM | > 100 µM | 52.6 µM | > 100 µM | 36.7 µM | 89.7 µM | 78.8 µM | – | – | –
Cc1cccc(=O)c([O-])c1.Cc1cccc(=O)c([O-])c1.Cc1cccc(=O)c([O-])c1.Cc1cccc(=O)c([O-])c1.[Th+4] | > 100 µM | > 100 µM | > 100 µM | > 100 µM | > 100 µM | > 100 µM | – | > 63 µM | 19.6 µM | > 100 µM | > 100 µM | – | – | –
Cc1cn([C@@H]2C[C@](C)(CO)N(C)O2)c(=O)[nH]c1=O | – | > 100 µM | > 100 µM | – | > 100 µM | > 100 µM | > 100 µM | > 100 µM | > 100 µM | > 100 µM | > 100 µM | – | – | –
